Assay results published in patent US11078170B2 (Assembly Biosciences, Inc., priority 2017, dated 2021).

These compounds were tested on HBV viral production from HepAD38 cells (assay: Activity of test compounds on viral production from HepAD38 cells (viral load by qPCR of HBV core sequence in supernatant)). Settings: Hepatitis B virus, 120 h, 5 days incubation, HBV DNA in supernatant by qPCR, top concentration 10 μM, read-out: Viral Load EC50 Activity range.
Type: cell-based
In short: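 EC50 and CC50 come from four-parameter fits of supernatant viral load and CellTiter-Glo viability, respectively. Viral load was measured by core-region TaqMan qPCR against HBV DNA standards and compared with DMSO controls. Tet-free HepAD38 cells (50,000/well, 2% FBS) were exposed to compound, highest 10 μM, for 5 days at 37° C.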
With `CN1C(C(=O)Nc2ccc(F)c(Cl)c2)CC(c2ccc(-c3cnn(C)c3)cc2)NS1(=O)=O` (racemic) [HBV-CSU-246, Cis-N-(3-Chloro-4-fluorophenyl)-2-methyl-5-(4-(1-methyl-1H-pyrazol-4-yl)phenyl)-1,2,6-thiadiazinane-3-carboxamide 1,1-dioxide] the EC50 was less than 1 µM. Compound `CN1C(C(=O)Nc2ccc(F)c(Cl)c2)CC(c2cccc(-c3cnn(C)c3)c2)NS1(=O)=O` (racemic) [HBV-CSU-247, Cis-N-(3-chloro-4-fluorophenyl)-2-methyl-5-(3-(1-methyl-1H-pyrazol-4-yl)phenyl)-1,2,6-thiadiazinane-3-carboxamide 1,1-dioxide] has an EC50 of less than 1 µM. `CN1C(C(=O)Nc2ccc(F)c(Cl)c2)CC(c2ncc(-c3ccc(F)cc3)s2)NS1(=O)=O` (racemic) [HBV-CSU-248, Cis-N-(3-Chloro-4-fluorophenyl)-5-(5-(4-fluorophenyl)thiazol-2-yl)-2-methyl-1,2,6-thiadiazinane-3-carboxamide 1,1-dioxide] showed an EC50 of less than 1 µM. Compound `COc1ccc(-c2cnc(C3CC(C(=O)Nc4ccc(F)c(Cl)c4)N(C)S(=O)(=O)N3)s2)cc1` (racemic) [HBV-CSU-250, Cis-N-(3-Chloro-4-fluorophenyl)-5-(5-(4-methoxyphenyl)thiazol-2-yl)-2-methyl-1,2,6-thiadiazinane-3-carboxamide 1,1-dioxide] has an EC50 of less than 1 µM. Work on `CN1C(C(=O)Nc2ccc(F)c(Cl)c2)CC(c2ncc(-c3ccc(F)cn3)s2)NS1(=O)=O` (racemic) [HBV-CSU-252, Cis-N-(3-Chloro-4-fluorophenyl)-5-(5-(5-fluoropyridin-2-yl)thiazol-2-yl)-2-methyl-1,2,6-thiadiazinane-3-carboxamide 1,1-dioxide] yielded an EC50 of less than 1 µM. `CN1C(C(=O)Nc2ccc(F)c(Cl)c2)CC(c2ncc(-c3cn[nH]c3)s2)NS1(=O)=O` (racemic) [HBV-CSU-254, Cis-5-(5-(1H-pyrazol-4-yl)thiazol-2-yl)-N-(3-chloro-4-fluorophenyl)-2-methyl-1,2,6-thiadiazinane-3-carboxamide 1,1-dioxide] was tested, and the EC50 was less than 1 µM. `CN1C(C(=O)Nc2ccc(F)c(Br)c2)CC(c2cc(Br)cs2)NS1(=O)=O` (racemic) [HBV-CSU-258, Cis-N-(3-Bromo-4-fluorophenyl)-5-(4-bromothiophen-2-yl)-2-methyl-1,2,6-thiadiazinane-3-carboxamide 1,1-dioxide] showed an EC50 of less than 1 µM. In the case of `CN1C(C(=O)Nc2ccc(F)c(Cl)c2)CC(c2cccc(Cl)c2)NS1(=O)=O` (racemic) [HBV-CSU-261, Cis-N-(3-Chloro-4-fluorophenyl)-5-(3-chlorophenyl)-2-methyl-1,2,6-thiadiazinane-3-carboxamide 1,1-dioxide], the EC50 is reported as less than 1 µM. `CN1C(C(=O)Nc2ccc(F)c(Cl)c2)CC(c2cccc(OC(F)(F)F)c2)NS1(=O)=O` (racemic) [HBV-CSU-262, Cis-N-(3-Chloro-4-fluorophenyl)-2-methyl-5-(3-(trifluoromethoxy)phenyl)-1,2,6-thiadiazinane-3-carboxamide 1,1-dioxide] gave an EC50 of less than 1 µM. With `CN1C(C(=O)Nc2ccc(F)c(Cl)c2)CC(c2ccc(OC(F)F)cc2)NS1(=O)=O` (racemic) [HBV-CSU-263, Cis-N-(3-Chloro-4-fluorophenyl)-5-(4-(difluoromethoxy)phenyl)-2-methyl-1,2,6-thiadiazinane-3-carboxamide 1,1-dioxide] the EC50 was less than 1 µM. `CN1C(C(=O)Nc2ccc(F)c(Cl)c2)CC(c2cccc(OC(F)F)c2)NS1(=O)=O` (racemic) [HBV-CSU-264, Cis-N-(3-chloro-4-fluorophenyl)-5-(3-(difluoromethoxy)phenyl)-2-methyl-1,2,6-thiadiazinane-3-carboxamide 1,1-dioxide] gave an EC50 of less than 1 µM. `CN1C(C(=O)Nc2ccc(F)c(Cl)c2)CC(c2ccc(-c3cn(C)cn3)s2)NS1(=O)=O` (racemic) [HBV-CSU-266, Cis-N-(3-Chloro-4-fluorophenyl)-2-methyl-5-(5-(1-methyl-1H-imidazol-4-yl)thiophen-2-yl)-1,2,6-thiadiazinane-3-carboxamide 1,1-dioxide] was tested, and the EC50 was less than 1 µM. `CN1C(C(=O)Nc2ccc(F)c(Cl)c2)CC(c2ccc(-c3cncn3C)s2)NS1(=O)=O` (racemic) [HBV-CSU-267, Cis-N-(3-Chloro-4-fluorophenyl)-2-methyl-5-(5-(1-methyl-1H-imidazol-5-yl)thiophen-2-yl)-1,2,6-thiadiazinane-3-carboxamide 1,1-dioxide] gave an EC50 of less than 1 µM. For `CN1C(C(=O)Nc2ccc(F)c(Cl)c2)CC(c2ccc(-c3cncs3)s2)NS1(=O)=O` (racemic) [HBV-CSU-268, Cis-N-(3-Chloro-4-fluorophenyl)-2-methyl-5-(5-(thiazol-5-yl)thiophen-2-yl)-1,2,6-thiadiazinane-3-carboxamide 1,1-dioxide], the EC50 was less than 1 µM. `CN1C(C(=O)Nc2ccc(F)c(Cl)c2)CC(c2ccc(-c3cnco3)s2)NS1(=O)=O` (racemic) [HBV-CSU-269, Cis-N-(3-Chloro-4-fluorophenyl)-2-methyl-5-(5-(oxazol-5-yl)thiophen-2-yl)-1,2,6-thiadiazinane-3-carboxamide 1,1-dioxide] gave an EC50 of less than 1 µM. For `CN1C(C(=O)Nc2ccc(F)c(Cl)c2)CC(c2ccc(-c3ccnn3C)s2)NS1(=O)=O` (racemic) [HBV-CSU-271, Cis-N-(3-chloro-4-fluorophenyl)-2-methyl-5-(5-(1-methyl-1H-pyrazol-5-yl)thiophen-2-yl)-1,2,6-thiadiazinane-3-carboxamide 1,1-dioxide], the EC50 was less than 1 µM. Work on `CN1C(C(=O)Nc2ccc(F)c(Cl)c2)CC(c2ccc(-c3cncnc3)s2)NS1(=O)=O` (racemic) [HBV-CSU-272, Cis-N-(3-chloro-4-fluorophenyl)-2-methyl-5-(5-(pyrimidin-5-yl)thiophen-2-yl)-1,2,6-thiadiazinane-3-carboxamide 1,1-dioxide] yielded an EC50 of less than 1 µM. `CN1C(C(=O)Nc2ccc(F)c(Cl)c2)CC(c2ncc(-c3cn(C)cn3)s2)NS1(=O)=O` (racemic) [HBV-CSU-276, Cis-N-(3-Chloro-4-fluorophenyl)-2-methyl-5-(5-(1-methyl-1H-imidazol-4-yl)thiazol-2-yl)-1,2,6-thiadiazinane-3-carboxamide 1,1-dioxide] was tested, and the EC50 was less than 1 µM. Work on `CN1C(C(=O)Nc2ccc(F)c(Cl)c2)CC(c2ncc(-c3cncn3C)s2)NS1(=O)=O` (racemic) [HBV-CSU-277, Cis-N-(3-Chloro-4-fluorophenyl)-2-methyl-5-(5-(1-methyl-1H-imidazol-5-yl)thiazol-2-yl)-1,2,6-thiadiazinane-3-carboxamide 1,1-dioxide] yielded an EC50 of less than 1 µM. Work on `CN1C(C(=O)Nc2ccc(F)c(Cl)c2)CC(c2ncc(-c3cncs3)s2)NS1(=O)=O` (racemic) [HBV-CSU-278, Cis-5-([5,5′-Bithiazol]-2-yl)-N-(3-chloro-4-fluorophenyl)-2-methyl-1,2,6-thiadiazinane-3-carboxamide 1,1-dioxide] yielded an EC50 of less than 1 µM. `CN1C(C(=O)Nc2ccc(F)c(Cl)c2)CC(c2ncc(-c3ccn(C)n3)s2)NS1(=O)=O` (racemic) [HBV-CSU-280, Cis-N-(3-Chloro-4-fluorophenyl)-2-methyl-5-(5-(1-methyl-1H-pyrazol-3-yl)thiazol-2-yl)-1,2,6-thiadiazinane-3-carboxamide 1,1-dioxide] was tested, and the EC50 was less than 1 µM. Compound `CN1C(C(=O)Nc2ccc(F)c(Cl)c2)CC(c2ncc(-c3ccnn3C)s2)NS1(=O)=O` (racemic) [HBV-CSU-281, Cis-N-(3-Chloro-4-fluorophenyl)-2-methyl-5-(5-(1-methyl-1H-pyrazol-5-yl)thiazol-2-yl)-1,2,6-thiadiazinane-3-carboxamide 1,1-dioxide] has an EC50 of less than 1 µM. `CN1C(C(=O)Nc2ccc(F)c(Cl)c2)CC(c2cc(-c3cncn3C)cs2)NS1(=O)=O` (racemic) [HBV-CSU-285, Cis-N-(3-Chloro-4-fluorophenyl)-2-methyl-5-(4-(1-methyl-1H-imidazol-5-yl)thiophen-2-yl)-1,2,6-thiadiazinane-3-carboxamide 1,1-dioxide] showed an EC50 of less than 1 µM. In the case of `CN1C(C(=O)Nc2ccc(F)c(Cl)c2)CC(c2cc(-c3cncs3)cs2)NS1(=O)=O` (racemic) [HBV-CSU-286, Cis-N-(3-Chloro-4-fluorophenyl)-2-methyl-5-(4-(thiazol-5-yl)thiophen-2-yl)-1,2,6-thiadiazinane-3-carboxamide 1,1-dioxide], the EC50 is reported as less than 1 µM. `CN1C(C(=O)Nc2ccc(F)c(Cl)c2)CC(c2cc(-c3ccn(C)n3)cs2)NS1(=O)=O` (racemic) [HBV-CSU-288, Cis-N-(3-Chloro-4-fluorophenyl)-2-methyl-5-(4-(1-methyl-1H-pyrazol-3-yl)thiophen-2-yl)-1,2,6-thiadiazinane-3-carboxamide 1,1-dioxide] gave an EC50 of less than 1 µM. For `CN1C(C(=O)Nc2ccc(F)c(Cl)c2)CC(c2cc(-c3ccnn3C)cs2)NS1(=O)=O` (racemic) [HBV-CSU-289, Cis-N-(3-chloro-4-fluorophenyl)-2-methyl-5-(4-(1-methyl-1H-pyrazol-5-yl)thiophen-2-yl)-1,2,6-thiadiazinane-3-carboxamide 1,1-dioxide], the EC50 was less than 1 µM. Work on `CN1C(C(=O)Nc2ccc(F)c(Cl)c2)CC(c2cc(-c3cncnc3)cs2)NS1(=O)=O` (racemic) [HBV-CSU-290, Cis-N-(3-chloro-4-fluorophenyl)-2-methyl-5-(4-(pyrimidin-5-yl)thiophen-2-yl)-1,2,6-thiadiazinane-3-carboxamide 1,1-dioxide] yielded an EC50 of less than 1 µM. Compound `CCn1cc(-c2ccc(C3CC(C(=O)Nc4ccc(F)c(Cl)c4)N(C)S(=O)(=O)N3)s2)cn1` (racemic) [HBV-CSU-291, Cis-N-(3-chloro-4-fluorophenyl)-5-(5-(1-ethyl-1H-pyrazol-4-yl)thiophen-2-yl)-2-methyl-1,2,6-thiadiazinane-3-carboxamide 1,1-dioxide] has an EC50 of less than 1 µM. `CN1C(C(=O)Nc2ccc(F)c(Cl)c2)CC(c2cc(-c3cnn(CCO)c3)cs2)NS1(=O)=O` (racemic) [HBV-CSU-296, Cis-N-(3-chloro-4-fluorophenyl)-5-(4-(1-(2-hydroxyethyl)-1H-pyrazol-4-yl)thiophen-2-yl)-2-methyl-1,2,6-thiadiazinane-3-carboxamide 1,1-dioxide] was tested, and the EC50 was 1 to 5 µM.
